Assays:
[1] = tested on: Human umbilical vein endothelial cells (HUVECs); assay: Serum stimulated HUVEC cell proliferation (Sulphorhodamine B); format: cell-based; settings: for selectivity for serum-stimulated endothelial cell proliferation: HUVEC compared to A90 and C6 tumor cell proliferation
Procedure: (§1) Human umbilical vein endothelial cells (HUVECs) (Clonetics, Palo Alto, Calif.) were seeded at 2000 cells per well in growth medium containing 2% serum (EGM, Clonetics) and allowed to attach overnight (37° C., 5% CO2, 100% humidity). C6 rat glioma cells (ATCC) were seeded at 600 cells per well and incubated in F10 medium (GIBCO, Gaithersburg, Md.) supplemented with 15% horse serum, 2.5% fetal bovine serum, and 1 mM glutamine. A90 human ovarian cells (Dr. Kent Crickard, SUNY/AB Medical School) were seeded at 600 cells per well in RPMI1640 (GIBCO) plus 10% fetal bovine serum. Plates were incubated overnight (37° C., 5% CO2, 100% humidity) to allow the cells to attach. Test compound dilutions were added to the appropriate wells, and the incubation was continued for 4 additional days. Monolayers were fixed in 10% trichloroacetic acid (30 minutes at 4° C.), washed with distilled water, and stained with Sulphorhodamine B (0.075% in 1% acetic acid) (Sigma). Plates were washed in 1% acetic acid, and the bound dye was solubilized in 100 μL unbuffered Tris base. Absorbance was measured at 540 nm using a reference filter wavelength of 630 nm. Inhibitor potency (IC50) versus cellular proliferation was determined, and endothelial cell selectivity was assessed by comparing the inhibition of HUVEC proliferation to A90 and C6 tumor cell proliferation (Table 3).

Lck = biological target: T1, Lck (Homo sapiens, UniProt P06239); assay: Kinase inhibition assay (DELFIA), Lck; format: biochemical; settings: 40 μM ATP, kinase domain 20 nM
T1 construct: The kinase domains from FGFR-1, VEGFR-2, Lck, and PDGF were purified from baculoviral vectors expression systems; made in house
Procedure: (§2) The inhibition activity of the compounds in Examples 8, 9, 10, 11, and 12 and Reference Compounds A and B were evaluated using the Dissociated Enhanced Lanthanide Fluoroimmuno Assay (DELFIA) (Frank Loganzo and Carolyn Hardy. A sensitive, time-resolved fluorometric assay for the detection of inhibitors of phosphotyrosine kinases. American Biotechnology Laboratory, December 1998). DELFIA plates (EG&G Wallac, Gaithersburg, Md.) were coated overnight with Poly Glu Tyr (4:1) (Sigma, St. Louis, Mo.) at room temperature, washed (DELFIA wash reagent, EG&G Wallac), and spotted with 1 μL inhibitor dilution or DMSO carrier control per well. In some cases, kinase was autophosphorylated prior to analysis by incubating 45 minutes at 4° C. in the presence of 4 mM ATP and 25 mM MgCl2. A typical 100 μL kinase assay reaction contained 20 mM Tris (pH 7.5), 20 mM MgCl2, 50 mM NaCl, 5 mM DTT, and protease inhibitors (Mini EDTA-free protease inhibitor cocktail tablets, Boehringer Mannheim, Indianapolis, Ind.), 40 μM ATP, and an appropriate concentration of inhibitor. The reaction was allowed to continue for 30 minutes at room temperature. Plates were washed, blocked 30 minutes at room temperature (0.5% bovine serum albumin in DELFIA Assay Buffer, EG&G Wallac), and washed. One hundred microliter europium-conjugated antiphosphotyrosine antibody in DELFIA assay buffer was added to each well. Plates were incubated for 1 hour and decanted. One hundred microliter DELFIA enhancement solution (EG&G Wallac) was added and time-resolved fluorescence of the reactions determined using a VICTOR2 1420 multilable counter (EG&G Wallac). Compounds were tested from 10 through 0.0001 μM. c-Src was (Upstate Biotechnology, Lake Placid, N.Y.) was used at 3 units per reaction. The kinase domains from FGFR-1, VEGFR-2, Lck, and PDGF were purified from baculoviral vectors expression systems and were used in the assays at 20 nM.

VEGFR-2 = biological target: T2, VEGFR-2 (Homo sapiens, UniProt P35968); assay: Kinase inhibition assay (DELFIA), VEGF-2; format: biochemical; settings: 40 μM ATP, kinase domain 20 nM
T2 construct: The kinase domains from FGFR-1, VEGFR-2, Lck, and PDGF were purified from baculoviral vectors expression systems; made in house
Procedure: as §2, with “DELFIA” for “The inhibition activity of the compounds in Examples 8, 9, 10, 11, and 12 and Reference Compounds A and B were evaluated using the Dissociated Enhanced Lanthanide Fluoroimmuno Assay (DELFIA) (Frank Loganzo and Carolyn Hardy. A sensitive, time-resolved fluorometric assay for the detection of inhibitors of phosphotyrosine kinases. American Biotechnology Laboratory, December 1998). DELFIA”, “One hundred microliter DELFIA enhancement solution (EG&G Wallac) was added and time-resolved fluorescence of the reactions determined using a VICTOR2 1420 multilable counter (EG&G Wallac).” left out

c-Src = biological target: T3, c-Src (Homo sapiens, UniProt P12931); assay: Kinase inhibition assay (DELFIA), c-Src; format: biochemical; settings: 40 μM ATP, c-Src 3 units per reaction
T3 construct: purchased Upstate Biotechnology, Lake Placid, N.Y
Procedure: as §2

FGFR-1 = biological target: T4, FGFR-1 (Homo sapiens, UniProt P11362); assay: Kinase inhibition assay (DELFIA), FGFr; format: biochemical; settings: 40 μM ATP, kinase domain 20 nM
T4 construct: The kinase domains from FGFR-1, VEGFR-2, Lck, and PDGF were purified from baculoviral vectors expression systems; made in house
Procedure: as §2

C6 rat glioma cells = assay: C6 tumor cell proliferation (Sulphorhodamine B); format: cell-based; settings: Rattus norvegicus, Glioma cell, 96 h; 4 days with compound
Procedure: as §1

A90 human ovarian cells = assay: A90 tumor cell proliferation (Sulphorhodamine B); format: cell-based; settings: Homo sapiens, 96 h; 4 days with compound
Procedure: as §1

[2] = Metabolic stability, human liver S9 fraction; format: in vitro ADME; settings: liver S9 fraction; human liver S9, 5 μM, 37° C., 1.0 mM NADPH; read-out: HS9 in vitro metabolic half-life
Procedure: (§3) Compounds were individually incubated (5 μM in DMSO) with human and mice liver S9 fractions in 50 mM KHPO4 buffer at 37° C. in the presence of 1.0 mM NADPH and additional cofactors. At 0, 10, 20, and 40 minutes, 100 μL aliquots were removed and added to 300 μL of acetonitrile. Standard curves were prepared in a similar manner with each compound. Samples were analyzed for parent concentration by LC-MS/MS. The in vitro metabolic half-life was determined from the concentration-time plots using WinNonlin. These in vitro data represent the rate of oxidative, hydrolytic, and conjugative metabolism.

[3] = Metabolic stability, mice liver S9 fraction; format: in vitro ADME; settings: mouse, liver S9 fraction; mice liver S9, 5 μM, 37° C., 1.0 mM NADPH; read-out: MS9 in vitro metabolic half-life
Procedure: as §3

in vitro = settings: human, Caco-2
Procedure: (§4) Cell transport studies were conducted with Caco-2 cells grown on Snapwells™ between 22 and 28 days postseeding. Typically, 10 mM MES buffer (pH 6.5) with 5 mM KCl, 135 mM NaCl, and 1.8 mM CaCl2 was used for the apical side and 10 mM MOPS (pH 7.4) with 5 M KCl, 132 mM NaCl, and 1.8 mM CaCl2 with 5 mM D-glucose was used for the basolateral side. On the day of the experiment, the growth media was aspirated, and the cell monolayers were pre-equilibrated with appropriate buffers at 37° C., and TEER measurements were performed to confirm the integrity of the monolayers. Transepithelial flux measurements were made by mounting the cell monolayers in a side-by-side diffusion chamber system (Precision Instrument Design, Tahoe City, Calif.). Temperature was maintained at 37° C. with a circulating water jacket. The solutions were mixed with gas-lift circulation with 95% oxygen/5% carbon dioxide. […] Donor and receiver samples were collected at selected time intervals for up to 3 hours. […] Test compounds were analyzed using LC-MS/MS methods. Apparent permeability coefficients were calculated using the following equation: Papp=(V·dC/dt)/(A·C0) where V=volume of the receiver solution in mL; A=surface area of the monolayer in cm^2; C0=initial donor concentration in mM; and dC/dt=change of the drug concentration in the receiver chamber over time.

[4] = Caco-2 cell transport (permeability) study; settings: human
Procedure: as §4

T2 sequence (P35968 834-1162 limits assumed, species assumed): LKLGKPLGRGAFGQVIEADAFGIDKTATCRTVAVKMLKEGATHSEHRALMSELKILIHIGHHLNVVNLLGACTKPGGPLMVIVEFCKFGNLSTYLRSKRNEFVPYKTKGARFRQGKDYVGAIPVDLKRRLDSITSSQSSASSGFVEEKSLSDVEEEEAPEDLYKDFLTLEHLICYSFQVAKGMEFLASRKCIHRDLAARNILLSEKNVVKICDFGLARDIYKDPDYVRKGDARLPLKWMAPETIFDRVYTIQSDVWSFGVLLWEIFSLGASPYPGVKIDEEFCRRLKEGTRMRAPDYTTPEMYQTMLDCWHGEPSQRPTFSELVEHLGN
T4 sequence (P11362 478-767 limits assumed, species assumed): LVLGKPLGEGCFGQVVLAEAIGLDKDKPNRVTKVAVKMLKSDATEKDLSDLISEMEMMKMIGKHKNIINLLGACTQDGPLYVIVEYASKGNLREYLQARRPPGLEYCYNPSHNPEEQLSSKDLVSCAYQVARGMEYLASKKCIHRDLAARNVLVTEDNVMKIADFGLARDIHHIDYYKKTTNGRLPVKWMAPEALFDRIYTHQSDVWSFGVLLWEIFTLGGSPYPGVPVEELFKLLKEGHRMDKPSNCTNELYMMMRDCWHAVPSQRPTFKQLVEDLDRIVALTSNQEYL
T3 sequence (P12931 whole entry): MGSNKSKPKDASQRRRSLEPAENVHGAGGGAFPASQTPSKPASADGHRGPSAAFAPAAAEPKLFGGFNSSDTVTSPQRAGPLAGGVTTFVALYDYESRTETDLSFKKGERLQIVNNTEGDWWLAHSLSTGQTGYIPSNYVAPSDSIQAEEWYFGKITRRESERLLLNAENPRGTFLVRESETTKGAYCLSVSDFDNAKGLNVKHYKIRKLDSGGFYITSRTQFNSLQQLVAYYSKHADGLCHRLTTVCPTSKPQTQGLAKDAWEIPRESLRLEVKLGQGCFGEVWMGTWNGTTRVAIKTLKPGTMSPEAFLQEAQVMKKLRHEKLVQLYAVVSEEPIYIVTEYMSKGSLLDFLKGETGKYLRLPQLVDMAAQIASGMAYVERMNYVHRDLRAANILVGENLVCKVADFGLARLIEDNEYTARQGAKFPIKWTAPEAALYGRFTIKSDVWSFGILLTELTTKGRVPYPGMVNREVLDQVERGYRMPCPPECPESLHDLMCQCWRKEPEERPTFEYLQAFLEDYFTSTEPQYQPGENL
T1 sequence (P06239 245-498 limits assumed, species assumed): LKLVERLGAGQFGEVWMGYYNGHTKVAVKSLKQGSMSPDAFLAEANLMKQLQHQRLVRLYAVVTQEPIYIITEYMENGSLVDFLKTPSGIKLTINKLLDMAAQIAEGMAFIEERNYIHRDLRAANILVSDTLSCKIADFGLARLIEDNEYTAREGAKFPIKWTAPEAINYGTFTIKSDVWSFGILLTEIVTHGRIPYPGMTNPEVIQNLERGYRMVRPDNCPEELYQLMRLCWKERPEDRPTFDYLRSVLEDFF

melting point [°C]	Ki (Lck) [µM]	IC50 (VEGFR-2) [µM]	IC50 (c-Src) [µM]	IC50 (FGFR-1) [µM]	SMILES	selectivity for serum-stimulated endothelial cell proliferation [1]	also measured
295.5 to 297					CCn1c(=O)c(-c2c(Cl)c(OC)cc(OC)c2Cl)cc2cnc(Nc3ccncc3)nc21 [Example 15, 6-(2,6-Dichloro-3,5-dimethoxy-phenyl)-2-(pyridin-4-ylamino)-8-ethyl-8H-pyrido[2,3-d]pyrimidin-7-one]		
283 to 285					COc1cc(OC)cc(-c2cc3cnc(Nc4ccncc4)nc3n(C3CCCC3)c2=O)c1 [Example 16, 6-(3,5-Dimethoxy-phenyl)-2-(pyridin-4-ylamino)-8-cyclopentyl-8H-pyrido[2,3-d]pyrimidin-7-one]		
245 to 247					COc1cc(OC)cc(-c2cc3cnc(Nc4ccncc4)nc3n(C)c2=O)c1 [Example 17, 6-(3,5-Dimethoxy-phenyl)-2-(pyridin-4-ylamino)-8-methyl-8H-pyrido[2,3-d]pyrimidin-7-one]		
	0.06	0.004	1.34	0.002	CCN(CC)CCOc1ccc(Nc2ncc3cc(-c4cc(OC)cc(OC)c4)c(=O)n(C)c3n2)cc1 [Reference B, reference compound]		half-life at 5 μM [2]: 22 min; Papp A→B [4]: 201 nm/s; half-life at 5 μM [3]: 10 min

Second part, the compound before the results:

SMILES	melting point [°C]	Ki (Lck) [µM]	IC50 (VEGFR-2) [µM]	IC50 (c-Src) [µM]	IC50 (FGFR-1) [µM]	selectivity for serum-stimulated endothelial cell proliferation [1]	also measured
CCn1c(=O)c(-c2cc(OC)cc(OC)c2)cc2cnc(Nc3ccnc(C)c3)nc21 [Example 9, 6-(3,5-Dimethoxy-phenyl)-8-ethyl-2-(2-methyl-pyridin-4-ylamino)-8H-pyrido[2,3-d]pyrimidin-7-one]	> 300					selective inhibitors	
CCn1c(=O)c(-c2cc(OC)cc(OC)c2)cc2cnc(Nc3cc(C)nc(C)c3)nc21 [Example 10, 6-(3,5-Dimethoxy-phenyl)-2-(2,6-dimethyl-pyridin-4-ylamino)-8-ethyl-8H-pyrido[2,3-d]pyrimidin-7-one]		0.74	0.001	> 4	0.0008	selective inhibitors	
CCn1c(=O)c(-c2cc(OC)cc(OC)c2)cc2cnc(Nc3ccnc(Cl)c3)nc21 [Example 11, 6-(3,5-Dimethoxy-phenyl)-2-(2-chloro-pyridin-4-ylamino)-8-ethyl-8H-pyrido[2,3-d]pyrimidin-7-one]		2.77	0.003	> 4	0.0002	selective inhibitors	IC50 ([1]; Homo sapiens, HUVEC, 96 h, 2% serum growth medium, 4 days with compound): 0.013 µM; IC50 (C6 rat glioma cells): 9.68 µM; IC50 (A90 human ovarian cells): 25 µM
CCn1c(=O)c(-c2cc(OC)cc(OC)c2)cc2cnc(Nc3cc(OC)nc(OC)c3)nc21 [Example 12, 6-(3,5-Dimethoxy-phenyl)-2-(2,6-dimethoxy-pyridin-4-ylamino)-8-ethyl-8H-pyrido[2,3-d]pyrimidin-7-one]						selective inhibitors	
CCN(CC)CCOc1ccc(Nc2ncc3cc(-c4c(Cl)cccc4Cl)c(=O)n(C)c3n2)cc1 [Reference A]							half-life at 5 μM [2]: 46 min; half-life at 5 μM [3]: 14 min; Papp A→B (in vitro): 372 nm/s
COCCc1ccc(OCC(O)CNC(C)C)cc1 (stereo not drawn) [metoprolol]							Papp A→B [4]: ~300 nm/s

From patent US7022711B2, “2-(4-Pyridyl)amino-6-dialkoxyphenyl-pyrido[2,3-d]pyrimidin-7-ones” (Warner-Lambert Company, priority 2000, dated 2006)
